# Results taken from US20240343740A1, “MACROCYCLIC GLUCAGON-LIKE PEPTIDE 1 RECEPTOR AGONISTS” (Eli Lilly and Company, priority 2021, published 2024).
# Where two headings read alike, the source gives them in different places.
# Legend:
# [1] = cc_pd bond, 14-membered ring, 110.0 °C, 15.0 h
# human GLP-1R [2] = biological target: T1, human GLP-1R (Homo sapiens, UniProt P43220); test: Human GLP-1 Receptor HEK293 cell cAMP assay, 104 fmol/mg GLP-1R expression density; type: cell-based; set-up: expressed in transfected cells; host or cells: HEK293 clonal cell line; settings: HEK293 cell line with 104 fmol/mg expression density of GLP-1R; for EC50: geometric mean, read-out: EC50 nM (SEM, n), intracellular cAMP response, relative EC50; for Emax: percent of maximal response to GLP-1(7-36)NH2, arithmetic mean, read-out: Emax % (SEM, n), intracellular cAMP response
# Procedure, shortened: (§1)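 HEK293 clonal lines expressing human GLP-1R, 20-point compound curves, 30 min at 37° C in DMEM with 0.1% casein, 250 μM IBMX, 0.5% DMSO. cAMP by HTRF, converted via standard curve to % of maximal human GLP-1(7-36)NH2 response; relative EC50 and Emax from four-parameter logistic fit.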
# Target sequence in this assay (P43220 24-463): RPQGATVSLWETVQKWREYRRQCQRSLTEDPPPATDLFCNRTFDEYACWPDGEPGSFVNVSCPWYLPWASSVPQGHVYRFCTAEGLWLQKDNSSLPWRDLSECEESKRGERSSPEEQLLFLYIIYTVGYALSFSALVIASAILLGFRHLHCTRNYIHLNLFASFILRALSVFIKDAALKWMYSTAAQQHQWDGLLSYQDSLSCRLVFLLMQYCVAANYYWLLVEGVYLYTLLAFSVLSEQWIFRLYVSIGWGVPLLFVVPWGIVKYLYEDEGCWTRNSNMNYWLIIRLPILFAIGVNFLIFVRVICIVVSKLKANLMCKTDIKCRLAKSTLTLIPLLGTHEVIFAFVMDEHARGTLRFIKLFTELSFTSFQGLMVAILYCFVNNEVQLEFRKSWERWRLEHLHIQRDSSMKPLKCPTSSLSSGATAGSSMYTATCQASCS
# human GLP-1R [3] = biological target: T1, human GLP-1R; test: GLP-1R CHO cell β-arrestin recruitment assay (PathHunter); type: cell-based; set-up: host or cells: CHO-K1; settings: for EC50: CHO-K1 cells expressing Pro-Link-tagged Human GLP-1R and enzyme-acceptor-tagged β-arrestin-2, read-out: EC50 nM (SEM, n), hGLP1R induced β-Arrestin-2 recruitment relative EC50; for Emax: CHO-K1 cells, % stimulation with DMSO and GLP-1(7-36) as minimum and maximum controls, read-out: Emax % (SEM, n), hGLP1R induced β-Arrestin-2 recruitment
# Experimental: GLP-1R CHO Cell β-Arrestin Recruitment Assay
# Activated G-protein coupled receptors can interact with the β-arrestin family of signaling proteins. The potency of compounds for GLP-1R induced arrestin recruitment is determined using the PathHunter Enzyme Fragment Complementation approach substantially as described (von Degenfeld et al., FASEB J., 2007 (14):3819-26 and Hamdouchi et al., J. Med Chem., 2016 59(24):10891-10916). CHO-K1 cells expressing Pro-Link-tagged Human GLP-1R and enzyme-acceptor-tagged β-arrestin-2 may be obtained from DiscoveRx and prepared as assay-ready frozen cells. Test compounds are solubilized in DMSO and serial dilutions are performed using the Echo acoustic dispenser (LabCyte). Assay media is the PathHunter Cell Assay Buffer (DiscoveRx) containing 0.1% w/v hydrolyzed Casein (Sigma). 100 nL of test compound solution is dispensed into 10 μL of assay media in a 384 well plate and then 10 μL of cells in assay media are added to give 5000 cells per well. Plates are incubated for 90 min in a 37° C./5% CO2 incubator and 10 μL of PathHunter detection reagent is added (DiscoveRx) and plates are incubated at RT for 60 min. Luminescence signal is measured. Compound concentration-response curves fit to a four-parameter logistic model to calculate potency as an EC50 and percent top (Emax). Data normalization to % stimulation is performed using DMSO and GLP-1(7-36) as minimum and maximum controls (Campbell et al, Assay Guidance Manual 2017).
# Target sequence in this assay (P43220 24-463): as above
# Target sequence in this assay (P32121 whole entry partner): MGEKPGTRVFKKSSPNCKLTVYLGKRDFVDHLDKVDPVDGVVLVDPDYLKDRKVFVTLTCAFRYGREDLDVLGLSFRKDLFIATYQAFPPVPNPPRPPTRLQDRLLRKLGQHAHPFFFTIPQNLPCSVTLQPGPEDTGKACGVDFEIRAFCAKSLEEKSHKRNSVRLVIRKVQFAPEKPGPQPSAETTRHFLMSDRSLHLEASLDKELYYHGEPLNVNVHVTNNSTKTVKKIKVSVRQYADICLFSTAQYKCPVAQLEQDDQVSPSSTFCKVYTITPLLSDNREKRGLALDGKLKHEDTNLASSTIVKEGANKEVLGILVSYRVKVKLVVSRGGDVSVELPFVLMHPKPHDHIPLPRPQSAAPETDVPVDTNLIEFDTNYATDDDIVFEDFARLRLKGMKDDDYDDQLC
# human GLP-1R [4] = biological target: T1, human GLP-1R; test: Human GLP-1 Receptor HEK293 cell cAMP assay, 581 fmol/mg GLP-1R expression density; type: cell-based; set-up: expressed in transfected cells; host or cells: HEK293 clonal cell line; settings: HEK293 cell line with 581 fmol/mg expression density of GLP-1R; for EC50: geometric mean, read-out: EC50 nM (SEM, n), intracellular cAMP response, relative EC50; for Emax: percent of maximal response to GLP-1(7-36)NH2, arithmetic mean, read-out: Emax % (SEM, n), intracellular cAMP response
# Procedure, shortened: as §1
# Target sequence in this assay (P43220 24-463): as the sequence (P43220 24-463) above
smiles,measurement,setting,value
CCOC(=O)Cc1cc(F)c2cc1COCCc1cc(C#N)ccc1COc1ccc(F)c-2n1,"ring closure, yield after HPLC","[1]; from CCOC(=O)Cc1cc(F)c(Br)cc1COCCc1cc(C#N)ccc1COc1ccc(F)c(Br)n1, XPhos Pd G3/Me3SnSnMe3/CsF, 1,4-dioxane, 11.4 mM",29%
FC(F)(F)c1cc2c(cn1)COc1cccc(n1)-c1ccc(Cl)c(c1)COCC2,"ring closure, yield after HPLC","[1]; from FC(F)(F)c1cc(CCOCc2cc(Br)ccc2Cl)c(COc2cccc(Br)n2)cn1, XPhos Pd G3",14%
"N#Cc1ccc2c(c1)CCCOc1cc(c(F)cc1Cc1nc3ccc(C(=O)O)cc3n1C[C@@H]1CCO1)-c1cccc(n1)OC2 [Example 1, (S)-2-((5^4-Cyano-1^6-fluoro-3,9-dioxa-2(2,6)-pyridina-1(1,3),5(1,2)-dibenzenacyclononaphane-1^4-yl)methyl)-1-(oxetan-2-ylmethyl)-1H-benzo[d]imidazole-6-carboxylic acid]",EC50,human GLP-1R [2],59.7 nM
same,Emax,human GLP-1R [2],71%
same,EC50,human GLP-1R [3],213 nM
same,Emax,human GLP-1R [3],42.9%
same,EC50,human GLP-1R [4],19.8 nM
same,Emax,human GLP-1R [4],95%
"N#Cc1ccc2c(c1)CCCOc1cc(c(F)cc1Cc1nc3c(F)cc(C(=O)O)cc3n1C[C@@H]1CCO1)-c1cccc(n1)OC2 [Example 2, (S)-2-((5^4-Cyano-1^6-fluoro-3,9-dioxa-2(2,6)-pyridina-1(1,3),5(1,2)-dibenzenacyclononaphane-1^4-yl)methyl)-4-fluoro-1-(oxetan-2-ylmethyl)-1H-benzo[d]imidazole-6-carboxylic acid]",EC50,human GLP-1R [2],17.5 nM
same,Emax,human GLP-1R [2],72%
same,EC50,human GLP-1R [3],133 nM
same,Emax,human GLP-1R [3],52.7%
same,EC50,human GLP-1R [4],8.05 nM
same,Emax,human GLP-1R [4],98%
"O=C(O)c1ccc2nc(Cc3ccc4cc3OCCCc3cc(Cl)ccc3COc3cccc-4n3)n(C[C@@H]3CCO3)c2c1 [Example 3, (S)-2-((5^4-Chloro-3,9-dioxa-2(2,6)-pyridina-1(1,3),5(1,2)-dibenzenacyclononaphane-1^4-yl)methyl)-1-(oxetan-2-ylmethyl)-1H-benzo[d]imidazole-6-carboxylic acid]",EC50,human GLP-1R [2],132 nM
same,Emax,human GLP-1R [2],84%
same,EC50,human GLP-1R [3],320 nM
same,Emax,human GLP-1R [3],34%
same,EC50,human GLP-1R [4],44.1 nM
same,Emax,human GLP-1R [4],102%
"COc1cc(-c2nnn[nH]2)cc2c1nc(Cc1ccc3cc1OCCCc1cc(C#N)ccc1COc1cccc-3n1)n2C[C@@H]1CCO1 [Example 12, (S)-1^4-((4-Methoxy-1-(oxetan-2-ylmethyl)-6-(1H-tetrazol-5-yl)-1H-benzo[d]imidazol-2-yl)methyl)-3,9-dioxa-2(2,6)-pyridina-1(1,3),5(1,2)-dibenzenacyclononaphane-5^4-carbonitrile]",EC50,human GLP-1R [2],66.3 nM
same,Emax,human GLP-1R [2],46.4%
same,EC50,human GLP-1R [3],> 49500 nM
same,Emax,human GLP-1R [3],9.47%
same,EC50,human GLP-1R [4],20.2 nM
same,Emax,human GLP-1R [4],81.8%
